In US20250205256A1 (GH RESEARCH IRELAND LIMITED, priority 2022, published 2025):

Test system: patients with treatment-resistant major depressive disorder (TRD)
Test: Phase 1/2 clinical trial of inhaled 5-MeO-DMT in TRD: MADRS
Type: in vivo, human
Settings: for mean MADRS change from baseline at day seven / mean MADRS change from baseline at day seven, percent: n=4
From the text: Patients were assigned to different groups.
This trial was designed in two parts.

[1] = 12 mg n=4 sum, Day 1, baseline 16
[2] = 12 mg n=4 sum, Day 1 vs baseline
[3] = 12 mg n=4 sum, Day 7, baseline 16
[4] = 12 mg n=4 sum, Day 7 vs baseline
[5] = IDR n=8 sum, 2 h after last dose vs baseline

Structure (SMILES): COc1ccc2[nH]cc(CCN(C)C)c2c1 [5-MeO-DMT]
- MADRS Concentration Difficulties score [1]: 2
- MADRS Inability to Feel score [1]: 1
- MADRS Pessimistic Thoughts score [1]: 7
- MADRS Concentration Difficulties improvement [2]: 14
- MADRS Inability to Feel improvement [2]: 15
- MADRS Inner Tension improvement [2]: 10
- MADRS Lassitude improvement [2]: 16
- MADRS Pessimistic Thoughts improvement [2]: 9
- MADRS Reduced Sleep improvement [2]: 2
- MADRS Suicidal Thoughts improvement [2]: 3
- MADRS Suicidal Thoughts score (12 mg n=4 sum, Day 7, baseline 8): 7
- MADRS Reduced Sleep score (12 mg n=4 sum, Day 7, baseline 12): 6
- MADRS Inner Tension score (12 mg n=4 sum, Day 7, baseline 13): 5
- MADRS Concentration Difficulties score [3]: 3
- MADRS Inability to Feel score [3]: 1
- MADRS Lassitude score [3]: 3
- MADRS Pessimistic Thoughts score [3]: 8
- MADRS Concentration Difficulties improvement [4]: 13
- MADRS Inability to Feel improvement [4]: 15
- MADRS Inner Tension improvement [4]: 8
- MADRS Lassitude improvement [4]: 13
- MADRS Pessimistic Thoughts improvement [4]: 8
- MADRS Pessimistic Thoughts percentage improvement [4]: 50.00%
- MADRS Reduced Sleep improvement [4]: 6
- MADRS Reduced Sleep percentage improvement [4]: 50.00%
- MADRS Suicidal Thoughts improvement [4]: 1
- MADRS Concentration Difficulties improvement [5]: 19
- MADRS Inability to Feel improvement [5]: 24
- MADRS Inner Tension improvement [5]: 15
- MADRS Lassitude improvement [5]: 17
- MADRS Pessimistic Thoughts improvement [5]: 21
- MADRS Pessimistic Thoughts percentage improvement [5]: 75.00%
- MADRS Suicidal Thoughts improvement [5]: 8
- MADRS Suicidal Thoughts score (IDR n=8 sum, 2 h after last dose, baseline 11): 3
- MADRS Inner Tension score (IDR n=8 sum, 2 h after last dose, baseline 26): 11
- MADRS Lassitude score (IDR n=8 sum, 2 h after last dose, baseline 27): 10
- MADRS Pessimistic Thoughts score (IDR n=8 sum, 2 h after last dose, baseline 28): 7
- MADRS Concentration Difficulties score (IDR n=8 sum, 2 h after last dose, baseline 30): 11
- MADRS Inability to Feel score (IDR n=8 sum, 2 h after last dose, baseline 36): 12
- MADRS Suicidal Thoughts score (IDR n=8 sum, Day 1, baseline 11): 1
- MADRS Reduced Sleep score (IDR n=8 sum, Day 1, baseline 25): 12
- MADRS Inner Tension score (IDR n=8 sum, Day 1, baseline 26): 6
- MADRS Lassitude score (IDR n=8 sum, Day 1, baseline 27): 5
- MADRS Pessimistic Thoughts score (IDR n=8 sum, Day 1, baseline 28): 4
- MADRS Concentration Difficulties score (IDR n=8 sum, Day 1, baseline 30): 1
- MADRS Inability to Feel score (IDR n=8 sum, Day 1, baseline 36): 2
- MADRS Concentration Difficulties improvement (IDR n=8 sum, Day 1 vs baseline): 29
- MADRS Inability to Feel improvement (IDR n=8 sum, Day 1 vs baseline): 34
- MADRS Inner Tension improvement (IDR n=8 sum, Day 1 vs baseline): 20
- MADRS Lassitude improvement (IDR n=8 sum, Day 1 vs baseline): 22
- MADRS Pessimistic Thoughts improvement (IDR n=8 sum, Day 1 vs baseline): 24
- MADRS Reduced Sleep improvement (IDR n=8 sum, Day 1 vs baseline): 13
- MADRS Reduced Sleep percentage improvement (IDR n=8 sum, Day 1 vs baseline): 52.00%
- MADRS Suicidal Thoughts improvement (IDR n=8 sum, Day 1 vs baseline): 10
- MADRS Suicidal Thoughts score (IDR n=8 sum, Day 7, baseline 11): 3
- MADRS Reduced Sleep score (IDR n=8 sum, Day 7, baseline 25): 9
- MADRS Inner Tension score (IDR n=8 sum, Day 7, baseline 26): 12
- MADRS Lassitude score (IDR n=8 sum, Day 7, baseline 27): 3
- MADRS Pessimistic Thoughts score (IDR n=8 sum, Day 7, baseline 28): 3
- MADRS Concentration Difficulties score (IDR n=8 sum, Day 7, baseline 30): 9
- MADRS Inability to Feel score (IDR n=8 sum, Day 7, baseline 36): 6
- MADRS Concentration Difficulties improvement (IDR n=8 sum, Day 7 vs baseline): 21
- MADRS Inability to Feel improvement (IDR n=8 sum, Day 7 vs baseline): 30
- MADRS Inner Tension improvement (IDR n=8 sum, Day 7 vs baseline): 14
- MADRS Lassitude improvement (IDR n=8 sum, Day 7 vs baseline): 24
- MADRS Pessimistic Thoughts improvement (IDR n=8 sum, Day 7 vs baseline): 25
- MADRS Reduced Sleep improvement (IDR n=8 sum, Day 7 vs baseline): 16
- MADRS Reduced Sleep percentage improvement (IDR n=8 sum, Day 7 vs baseline): 64.00%
- MADRS Suicidal Thoughts improvement (IDR n=8 sum, Day 7 vs baseline): 8
- mean MADRS change from baseline at day seven (Part A, 12 mg): −21.0
- mean MADRS change from baseline at day seven, percent (Part A, 12 mg): −65%
- patients with MADRS remission (total score ≤10) on day seven (Part A, 12 mg, two of four patients): 50%
- mean MADRS change from baseline at day seven (Part A, 18 mg): −12.8
- mean MADRS change from baseline at day seven, percent (Part A, 18 mg): −41%
- further patients with MADRS clinical response on day seven (Part A, 18 mg, one further patient of four): 25%
- patients with MADRS remission (total score ≤10) on day seven (Part A, 18 mg, one of four patients): 25%
- patients with MADRS remission (total score ≤10) on day seven (Part B, IDR, seven of eight patients, p<0.0001): 87.5%
